From patent publication US12337003B2, “Pharmaceutical compositions for combination therapy” (Intercept Pharmaceuticals, Inc., priority 2015, dated 2025)

Key:
[1] = test system: kidney of a rat model of Type 1 diabetes; conditions: rat model of Type 1 diabetes (Wang 2010); cited from earlier work
[2] = test system: fibrosis induced by common bile duct ligation in mice; experiment: Bile duct ligation (BDL) model, Sirius-red staining of liver sections; assay type: in vivo, C57BL/6 mice; conditions: mean ± SD, OCA 5 mg/kg and/or atorvastatin 10 mg/kg orally once daily day 0 to day 6
Description: This experiment was performed to evaluate the effects of OCA and atorvastatin alone, and in combination, on fibrosis induced by common bile duct ligation in mice.
Male C57BL/6 mice (6 weeks of age) were obtained from Japan SLC. The animals were maintained in a specific pathogen free facility under controlled conditions of temperature (23±2° C.), humidity (45±10%), lighting (12-hour artificial light and dark cycles; light from 8:00 to 20:00), and air exchange (air exchange rate: more than 40 times/hour). A high pressure (20±4 Pa) was maintained in the experimental room to prevent contamination of the facility. The animals were housed in KN-600 (Natsume Seisakusho, Japan) with a maximum of 6 mice per cage. […]
Viability, clinical signs and behavior were monitored daily. Body weight was recorded daily during the treatment period. Food consumption was measured twice weekly per cage during the treatment period. […]
To visualize collagen deposition, Bouin's-fixed left lateral liver sections were stained using picro-Sirius red solution (Waldeck, Germany). For quantitative analysis of the fibrosis area, bright field images of Sirius red-stained sections were captured around the central vein using a digital camera (DFC295; Leica, Germany) at 100-fold magnification, and the positive areas in 5 fields/section were measured using ImageJ software (National Institute of Health, USA). […]

[3] = test system: patients with non-cirrhotic, non-alcoholic steatohepatitis; experiment: Randomized placebo-controlled clinical trial in non-alcoholic steatohepatitis; assay type: in vivo, humans; conditions: at 24 weeks; 25 mg daily orally vs placebo; 95% CI −45 to −3
Description: A multicenter, double-blind, placebo-controlled, parallel group, randomized clinical trial was conducted in patients with non-cirrhotic, non-alcoholic steatohepatitis to assess treatment with obeticholic acid given orally (25 mg daily) or placebo for 72 weeks. Patients were randomly assigned 1:1 using a computer-generated, centrally administered procedure, stratified by clinical center and diabetes status. The primary outcome measure was improvement in centrally scored liver histology defined as a decrease in non-alcoholic fatty liver disease activity score by at least 2 points without worsening of fibrosis from baseline to the end of treatment. Change in alanine aminotransferase at 24 weeks was measured: relative change in alanine aminotransferase −24%, 95% CI −45 to −3.
Patients were enrolled in the study according to the following inclusion criteria: 18 years or older at the time of screening, histological evidence of definite or borderline non-alcoholic steatohepatitis based upon a liver biopsy obtained 90 days or less before randomization, and a histological non-alcoholic fatty liver disease (NAFLD) activity score of 4 or more with a score of 1 or more in each component of the score (steatosis scored 0-3, ballooning 0-2, and lobular inflammation 0-3). Grading and staging of biopsies for the purposes of enrollment were carried out at the site of enrollment. […]

For CC[C@H]1[C@@H](O)[C@@H]2[C@H](CC[C@]3(C)[C@@H]([C@H](C)CCC(=O)O)CC[C@@H]23)[C@@]2(C)CC[C@@H](O)C[C@@H]12 [OCA, 3α,7α-dihydroxy-6α-ethyl-5β-cholan-24-oic acid], the “inflammatory infiltrates in kidney” value [1] is given as “inhibition of inflammatory infiltrates”, the “Sirius red-positive area (%)” value [2] is given as 2.06 ± 0.37% and the “relative change in alanine aminotransferase” value [3] is given as −24%.
